Measured values taken from publication PMC3687672 (British Journal of Pharmacology, 2013).

Experiments:
[1] = target: T1, large-conductance Ca2+-activated K+ (BKCa) channel (Homo sapiens, UniProt Q12791); assay: single-channel inside-out patch clamp; format: cell-based
[2] = target: T1, large-conductance Ca2+-activated K+ (BKCa) channel; assay: whole-cell patch clamp; format: cell-based

T1 sequence (Q12791 whole entry): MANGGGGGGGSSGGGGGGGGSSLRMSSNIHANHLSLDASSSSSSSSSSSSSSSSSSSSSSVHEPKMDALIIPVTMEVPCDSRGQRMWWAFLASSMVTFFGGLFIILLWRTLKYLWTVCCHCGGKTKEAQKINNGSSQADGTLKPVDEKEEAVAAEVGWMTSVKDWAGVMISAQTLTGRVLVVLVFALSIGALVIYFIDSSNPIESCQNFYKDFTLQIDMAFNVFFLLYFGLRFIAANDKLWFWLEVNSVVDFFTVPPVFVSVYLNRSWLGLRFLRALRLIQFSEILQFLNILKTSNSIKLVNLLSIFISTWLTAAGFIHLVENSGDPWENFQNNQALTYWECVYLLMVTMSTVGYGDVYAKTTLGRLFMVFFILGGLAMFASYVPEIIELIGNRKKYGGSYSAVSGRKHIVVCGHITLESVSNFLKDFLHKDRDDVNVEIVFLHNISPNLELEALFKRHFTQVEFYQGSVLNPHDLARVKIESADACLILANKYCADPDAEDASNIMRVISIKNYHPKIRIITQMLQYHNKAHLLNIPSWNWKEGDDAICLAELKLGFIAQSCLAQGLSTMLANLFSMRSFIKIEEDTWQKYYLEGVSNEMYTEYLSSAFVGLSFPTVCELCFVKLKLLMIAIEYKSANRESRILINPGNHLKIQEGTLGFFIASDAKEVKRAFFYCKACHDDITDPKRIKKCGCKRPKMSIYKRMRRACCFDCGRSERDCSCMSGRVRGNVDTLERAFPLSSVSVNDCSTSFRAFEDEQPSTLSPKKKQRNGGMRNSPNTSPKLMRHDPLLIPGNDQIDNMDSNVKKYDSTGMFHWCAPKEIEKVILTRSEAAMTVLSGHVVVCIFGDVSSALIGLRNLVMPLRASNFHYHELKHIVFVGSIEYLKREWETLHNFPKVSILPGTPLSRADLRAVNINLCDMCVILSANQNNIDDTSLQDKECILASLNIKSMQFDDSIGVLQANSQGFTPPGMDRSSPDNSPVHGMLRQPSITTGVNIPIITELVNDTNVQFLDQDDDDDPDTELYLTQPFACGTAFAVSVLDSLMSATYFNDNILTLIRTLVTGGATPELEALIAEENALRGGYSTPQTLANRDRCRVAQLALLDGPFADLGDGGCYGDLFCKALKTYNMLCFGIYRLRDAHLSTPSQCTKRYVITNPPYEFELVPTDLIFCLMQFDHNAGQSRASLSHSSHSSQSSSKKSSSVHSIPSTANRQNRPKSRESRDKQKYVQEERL

Row | Compound | single-channel inside-out patch clamp; whole-cell patch clamp with GDPbetaS [1] [µM] | whole-cell patch clamp [2] [µM]
1 | CCCCC/C=C\C/C=C\C/C=C\C/C=C\CCCC(=O)NCC(=O)O [NAGly] | 3 | 
2 | CC(C)(O)[C@H]1O[C@H]2CC[C@@]3(C)[C@@](O)(CC[C@H]4Cc5c([nH]c6ccccc56)[C@@]43C)C2=CC1=O [paxilline] |  | 1
